# Measurements reported in US6410575B1, “Viral treatment” (The Procter & Gamble Company, priority 1999, dated 2002).
# Where “and” joins values, the source holds several entries; their conditions need not be identical. Identical values can stand only once.
# Assays:
# [1] = test system: HSV-2MS; assay: Herpes simplex testing in vero cells; type: cell-based, herpes simplex virus -2; conditions: HSV-2MS in vero cells
# [2] = Toxicity values in the HHV8 test; type: cell-based; conditions: human, TPA-induced BCBL-1 cells; read-out: TC50 (the source's name)
# Method: (§1) Toxicity quantification involves the XTT-based evaluation. Assays were designed to characterize the long term effects of the compounds on virus production and to characterize the longer term effects of the compounds on virus production from chronically HIV infected cells.
# (§2) The DNA copy number and the toxicity value were measured and compared with Cidofovir. Kaposi's sarcoma (KS) is a cancer that is often found in people with weak immune systems, such as those taking immunosuppressants or those with AIDS. The exact nature of the disease is uncertain, but it is almost always found in association with HHV8.
# [3] = test system: TPA-induced BCBL-1 cells; assay: Toxicity values in the HHV8 test; type: cell-based
# Method: as §1, §2
# [4] = test system: HIV-1 cell line, CEMIIIB; assay: Long term in vitro study, CEMIIIB; type: cell-based
# Method: as §1
# (§3) CEM-SS cells chronically infected with HIV isolate, for example SKI (CEM-SKI) are cultured in RPMI1640 tissue culture medium supplemented with 10% fetal bovine serum and antibiotics. […] CEM-SKI or other infected cells with no added drug are used as the control cells.
# (§4) Cells are allowed to grow to a density of approximately 1×10^6 cells/ml and are then passaged at a 1:10 dilution. […] The drug concentration in the flask is then increased two-fold and the cells maintained as above.
# (§5) The cell populations contain integrated copies of the HIV genome and constitutively produce HIV at relatively high levels or are latently infected and only produce virus after stimulation with phorbol esters, tumor necrosis factor or IL6(U1 and ACH2). Reductions in virus products were observed when quantifying supernatant reverse transcriptase activity.
# The results with CEMIIIB cells was reported at weekly intervals.
# The CEMIIIB is a viral strain of the CEMSS cell line.
# [5] = test system: CEMROD; assay: Toxicity values in the HIV-2 screening test; type: cell-based; parameters: Toxicity Values, sample / Toxicity Values, average: unit not given here
# Source text: as §1
# [6] = test system: HIV-1 cell line, CEMSKI; assay: Long term in vitro study, CEMSKI; type: cell-based
# Method: as §1, §3, §4, §5
# The results with CEMSKI cells was reported at weekly intervals.
# The CEMSKI cell like is a viral strain of the CEMSS cell line.
# [7] = test system: Curvularia lunata; assay: Anti-fungal activity, MIC (NCCLS M-27A based); type: cell-based
# Method: It was active against Cryptococcus neoformans and Curvularia lunata. The cidal activity for the C. neoformans is high enough that it is clear […] against this yeast. This test was conducted using a method based upon NCCLS reference method M-27A published in 1997. Solvent, medium and growth controls were set-up with the tests. Once these were read to validate the test performance, the QC fungi were read to insure they had expected results. These steps validated the test system. DMSO was used as a drug-chemical solvent. […] The 90% cut-off is necessary for azoles, which are static and not cidal. The […] or cidal level, was determined by sub-culturing a sample from each tube showing no growth.
smiles,measurement,setting,value
NC(=S)Nc1nsc(-c2ccccc2)n1,TI or therapeutic index,[1],> 1.3
same,CC50,[2],100 µM
same,% cell control,[3]; 0.64 μM,114.3%
same,% cell control,[3]; 2 μM,114.9%
same,% cell control,[3]; 6.4 μM,104.6%
same,% cell control,[3]; 20 μM,114.8%
same,% cell control,[3]; 64 μM,59.7%
same,% cell control,[3]; 200 μM,23.4%
same,virus production (supernatant reverse transcriptase activity),"[4]; 7 μg/ml, day 4",4849
same,virus production (supernatant reverse transcriptase activity),"[4]; 7 μg/ml, day 11",6658
same,virus production (supernatant reverse transcriptase activity),"[4]; 7 μg/ml, day 18",7078
same,virus production (supernatant reverse transcriptase activity),"[4]; 7 μg/ml, day 25",5221
same,virus production (supernatant reverse transcriptase activity),"[4]; 7 μg/ml, day 32",5329
same,virus production (supernatant reverse transcriptase activity),"[4]; 7 μg/ml, day 39",7349
same,virus production (supernatant reverse transcriptase activity),"[4]; 7 μg/ml, day 46",11262
same,virus production (supernatant reverse transcriptase activity),"[4]; 7 μg/ml, day 53",11286
same,virus production (supernatant reverse transcriptase activity),"[4]; 15 μg/ml, day 4",5078
same,virus production (supernatant reverse transcriptase activity),"[4]; 15 μg/ml, day 11",5733
same,virus production (supernatant reverse transcriptase activity),"[4]; 15 μg/ml, day 18",6057
same,virus production (supernatant reverse transcriptase activity),"[4]; 15 μg/ml, day 25",4980
same,virus production (supernatant reverse transcriptase activity),"[4]; 15 μg/ml, day 32",4273
same,virus production (supernatant reverse transcriptase activity),"[4]; 15 μg/ml, day 39",6329
same,virus production (supernatant reverse transcriptase activity),"[4]; 15 μg/ml, day 46",10361
same,virus production (supernatant reverse transcriptase activity),"[4]; 15 μg/ml, day 53",9844
same,virus production (supernatant reverse transcriptase activity),"[4]; 30 μg/ml, day 4",5251
same,virus production (supernatant reverse transcriptase activity),"[4]; 30 μg/ml, day 11",6200
same,virus production (supernatant reverse transcriptase activity),"[4]; 30 μg/ml, day 18",6952
same,virus production (supernatant reverse transcriptase activity),"[4]; 30 μg/ml, day 25",4110
same,virus production (supernatant reverse transcriptase activity),"[4]; 30 μg/ml, day 32",3337
same,virus production (supernatant reverse transcriptase activity),"[4]; 30 μg/ml, day 39",4233
same,virus production (supernatant reverse transcriptase activity),"[4]; 30 μg/ml, day 46",9238
same,virus production (supernatant reverse transcriptase activity),"[4]; 30 μg/ml, day 53",3527
same,% cell control,[5]; 0.32 μg/ml,101.6%
same,"Toxicity Values, average",[5]; 0.32 μg/ml,1.197
same,"Toxicity Values, sample",[5]; 0.32 μg/ml,1.181 and 1.206 and 1.203
same,% cell control,[5]; 1 μg/ml,90.9%
same,"Toxicity Values, average",[5]; 1 μg/ml,1.071
same,"Toxicity Values, sample",[5]; 1 μg/ml,1.055 and 1.093 and 1.066
same,% cell control,[5]; 1.0 μg/ml,75.6%
same,"Toxicity Values, average",[5]; 1.0 μg/ml,0.891
same,"Toxicity Values, sample",[5]; 1.0 μg/ml,0.871 and 0.881 and 0.921
same,% cell control,[5]; 3.2 μg/ml,83.1%
same,"Toxicity Values, average",[5]; 3.2 μg/ml,0.979
same,"Toxicity Values, sample",[5]; 3.2 μg/ml,0.987 and 0.984 and 0.965
same,% cell control,[5]; 32 μg/ml,43.2%
same,"Toxicity Values, average",[5]; 32 μg/ml,0.509
same,"Toxicity Values, sample",[5]; 32 μg/ml,0.518 and 0.491 and 0.517
same,% cell control,[5]; 100 μg/ml,9.8%
same,"Toxicity Values, average",[5]; 100 μg/ml,0.115
same,"Toxicity Values, sample",[5]; 100 μg/ml,0.113 and 0.117 and 0.115
same,virus production (supernatant reverse transcriptase activity),"[6]; 7 μg/ml, day 4",6593
same,virus production (supernatant reverse transcriptase activity),"[6]; 7 μg/ml, day 11",8676
same,virus production (supernatant reverse transcriptase activity),"[6]; 7 μg/ml, day 18",10912
same,virus production (supernatant reverse transcriptase activity),"[6]; 7 μg/ml, day 25",9356
same,virus production (supernatant reverse transcriptase activity),"[6]; 7 μg/ml, day 32",8803
same,virus production (supernatant reverse transcriptase activity),"[6]; 7 μg/ml, day 39",6655
same,virus production (supernatant reverse transcriptase activity),"[6]; 7 μg/ml, day 46",8280
same,virus production (supernatant reverse transcriptase activity),"[6]; 7 μg/ml, day 53",7549
same,virus production (supernatant reverse transcriptase activity),"[6]; 15 μg/ml, day 4",6815
same,virus production (supernatant reverse transcriptase activity),"[6]; 15 μg/ml, day 11",8202
same,virus production (supernatant reverse transcriptase activity),"[6]; 15 μg/ml, day 18",10389
same,virus production (supernatant reverse transcriptase activity),"[6]; 15 μg/ml, day 25",7816
same,virus production (supernatant reverse transcriptase activity),"[6]; 15 μg/ml, day 32",6672
same,virus production (supernatant reverse transcriptase activity),"[6]; 15 μg/ml, day 39",7087
same,virus production (supernatant reverse transcriptase activity),"[6]; 15 μg/ml, day 46",6457
same,virus production (supernatant reverse transcriptase activity),"[6]; 15 μg/ml, day 53",6544
same,virus production (supernatant reverse transcriptase activity),"[6]; 30 μg/ml, day 4",6626
same,virus production (supernatant reverse transcriptase activity),"[6]; 30 μg/ml, day 11",6582
same,virus production (supernatant reverse transcriptase activity),"[6]; 30 μg/ml, day 18",7494
same,virus production (supernatant reverse transcriptase activity),"[6]; 30 μg/ml, day 25",4421
same,virus production (supernatant reverse transcriptase activity),"[6]; 30 μg/ml, day 32",4056
same,virus production (supernatant reverse transcriptase activity),"[6]; 30 μg/ml, day 39",2118
same,virus production (supernatant reverse transcriptase activity),"[6]; 30 μg/ml, day 46",4117
same,virus production (supernatant reverse transcriptase activity),"[6]; 30 μg/ml, day 53",4779
same,virus production (supernatant reverse transcriptase activity),"[6]; repeated test, 7 μg/ml, day 4",6224
same,virus production (supernatant reverse transcriptase activity),"[6]; repeated test, 7 μg/ml, day 11",6658
same,virus production (supernatant reverse transcriptase activity),"[6]; repeated test, 7 μg/ml, day 18",7207
same,virus production (supernatant reverse transcriptase activity),"[6]; repeated test, 7 μg/ml, day 25",5725
same,virus production (supernatant reverse transcriptase activity),"[6]; repeated test, 7 μg/ml, day 32",3161
same,virus production (supernatant reverse transcriptase activity),"[6]; repeated test, 7 μg/ml, day 39",9602
same,virus production (supernatant reverse transcriptase activity),"[6]; repeated test, 7 μg/ml, day 46",13984
same,virus production (supernatant reverse transcriptase activity),"[6]; repeated test, 7 μg/ml, day 53",11578
same,virus production (supernatant reverse transcriptase activity),"[6]; repeated test, 15 μg/ml, day 4",5685
same,virus production (supernatant reverse transcriptase activity),"[6]; repeated test, 15 μg/ml, day 11",5733
same,virus production (supernatant reverse transcriptase activity),"[6]; repeated test, 15 μg/ml, day 18",6236
same,virus production (supernatant reverse transcriptase activity),"[6]; repeated test, 15 μg/ml, day 25",3752
same,virus production (supernatant reverse transcriptase activity),"[6]; repeated test, 15 μg/ml, day 32",2451
same,virus production (supernatant reverse transcriptase activity),"[6]; repeated test, 15 μg/ml, day 39",5526
same,virus production (supernatant reverse transcriptase activity),"[6]; repeated test, 15 μg/ml, day 46",12397
same,virus production (supernatant reverse transcriptase activity),"[6]; repeated test, 15 μg/ml, day 53",9662
same,virus production (supernatant reverse transcriptase activity),"[6]; repeated test, 30 μg/ml, day 4",4789
same,virus production (supernatant reverse transcriptase activity),"[6]; repeated test, 30 μg/ml, day 11",5200
same,virus production (supernatant reverse transcriptase activity),"[6]; repeated test, 30 μg/ml, day 18",4821
same,virus production (supernatant reverse transcriptase activity),"[6]; repeated test, 30 μg/ml, day 25",2418
same,virus production (supernatant reverse transcriptase activity),"[6]; repeated test, 30 μg/ml, day 32",1651
same,virus production (supernatant reverse transcriptase activity),"[6]; repeated test, 30 μg/ml, day 39",3386
same,virus production (supernatant reverse transcriptase activity),"[6]; repeated test, 30 μg/ml, day 46",9353
same,virus production (supernatant reverse transcriptase activity),"[6]; repeated test, 30 μg/ml, day 53",6466
same,anti-fungal activity in vitro,[7],active
same,MIC,"[7]; growth inhibited or reduced at least 90%, read-out: MIC",0.03 µg/mL
